Data published in patent US10988477B2 (Merck Patent GmbH, priority 2018, dated 2021).

target: GCN2 kinase (Homo sapiens, UniProt Q9P2K8); assay: GCN2 enzyme inhibition assay (Transcreener ADP2 fluorescence polarization); assay type: biochemical; conditions: compounds of Formula II; 280 μM ATP, 4 nM GCN2 kinase
Method in brief: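 Kinase activity is followed as ADP formation, measured by fluorescence polarization, using 4 nM enzyme with 280 μM ATP and 200 μM (RS)7 peptide at pH 7.5 and 25 °C for 1 h. Values come from a non-linear tight-binding fit.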

Chain of GCN2 kinase (Q9P2K8 whole entry): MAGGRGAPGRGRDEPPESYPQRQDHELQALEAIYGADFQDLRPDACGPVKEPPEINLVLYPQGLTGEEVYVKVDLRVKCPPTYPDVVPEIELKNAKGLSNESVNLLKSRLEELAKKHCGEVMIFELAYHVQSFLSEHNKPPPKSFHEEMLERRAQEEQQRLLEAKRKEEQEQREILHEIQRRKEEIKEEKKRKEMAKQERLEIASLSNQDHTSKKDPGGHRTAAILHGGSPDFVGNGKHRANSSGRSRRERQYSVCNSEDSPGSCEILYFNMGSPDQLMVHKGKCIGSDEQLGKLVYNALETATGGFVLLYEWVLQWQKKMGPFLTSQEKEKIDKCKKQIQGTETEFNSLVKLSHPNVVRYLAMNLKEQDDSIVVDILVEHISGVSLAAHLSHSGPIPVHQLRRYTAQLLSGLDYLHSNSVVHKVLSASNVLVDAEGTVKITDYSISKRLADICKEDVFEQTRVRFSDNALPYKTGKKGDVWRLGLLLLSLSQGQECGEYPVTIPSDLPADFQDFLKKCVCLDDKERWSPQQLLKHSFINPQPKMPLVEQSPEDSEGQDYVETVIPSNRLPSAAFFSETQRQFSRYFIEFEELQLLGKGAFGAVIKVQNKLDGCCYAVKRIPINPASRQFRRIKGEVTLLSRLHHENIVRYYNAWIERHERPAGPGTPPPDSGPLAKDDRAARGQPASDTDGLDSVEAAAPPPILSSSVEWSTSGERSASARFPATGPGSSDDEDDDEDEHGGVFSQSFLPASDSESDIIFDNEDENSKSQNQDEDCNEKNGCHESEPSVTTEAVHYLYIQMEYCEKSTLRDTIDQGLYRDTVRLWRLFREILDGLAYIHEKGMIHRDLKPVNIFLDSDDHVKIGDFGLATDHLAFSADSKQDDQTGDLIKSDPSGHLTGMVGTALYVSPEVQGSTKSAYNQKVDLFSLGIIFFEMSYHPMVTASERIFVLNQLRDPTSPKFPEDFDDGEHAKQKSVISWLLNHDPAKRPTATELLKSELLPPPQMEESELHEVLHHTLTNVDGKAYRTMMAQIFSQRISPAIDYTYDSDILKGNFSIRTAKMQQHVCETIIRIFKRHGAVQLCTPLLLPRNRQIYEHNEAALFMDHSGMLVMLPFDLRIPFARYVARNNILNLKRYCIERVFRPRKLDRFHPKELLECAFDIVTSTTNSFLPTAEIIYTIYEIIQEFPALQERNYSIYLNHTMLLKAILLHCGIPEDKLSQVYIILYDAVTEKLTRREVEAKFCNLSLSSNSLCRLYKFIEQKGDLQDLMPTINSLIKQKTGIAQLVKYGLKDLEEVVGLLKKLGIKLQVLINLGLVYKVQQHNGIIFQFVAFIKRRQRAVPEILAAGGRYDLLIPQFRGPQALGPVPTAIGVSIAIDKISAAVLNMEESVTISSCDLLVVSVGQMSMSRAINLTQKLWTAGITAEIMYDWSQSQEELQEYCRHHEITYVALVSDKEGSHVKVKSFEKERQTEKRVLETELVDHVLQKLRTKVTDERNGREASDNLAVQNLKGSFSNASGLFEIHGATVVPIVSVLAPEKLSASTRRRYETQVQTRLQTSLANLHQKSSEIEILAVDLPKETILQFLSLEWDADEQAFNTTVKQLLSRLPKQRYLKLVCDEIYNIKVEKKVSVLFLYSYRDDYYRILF

| SMILES | Ki |
| --- | --- |
| FC(F)c1ccc2ncc(-c3ccnc(N4C[C@@H]5C[C@H]4CN5)c3)n2n1 [II-165, 3-(2-((1S,4S)-2,5-Diazabicyclo[2.2.1]heptan-2-yl)pyridin-4-yl)-6-(difluoromethyl)imidazo[1,2-b]pyridazine] | 10 to 1000 nM |
| Clc1ccc2ncc(-c3ccnc(N4CCNCC4)c3)n2n1 [II-220, 6-Chloro-3-(2-(piperazin-1-yl)pyridin-4-yl)imidazo[1,2-b]pyridazine] | > 1000 nM |
| COCCN1CCN(c2cc(-c3cnc4ccc(C(F)F)nn34)ncn2)C(C)C1CNS(C)(=O)=O (centres unmarked) [II-494, N-((4-(6-(6-(Difluoromethyl)imidazo[1,2-b]pyridazin-3-yl)pyrimidin-4-yl)-1-(2-methoxyethyl)-3-methylpiperazin-2-yl)methyl)methanesulfonamide] | < 10 nM |
| CC1C(CNS(C)(=O)=O)N(C(C)C)CCN1c1cc(-c2cnc3ccc(C(F)F)nn23)ncn1 (centres unmarked) [II-507, N-((4-(6-(6-(Difluoromethyl)imidazo[1,2-b]pyridazin-3-yl)pyrimidin-4-yl)-1-isopropyl-3-methylpiperazin-2-yl)methyl)methanesulfonamide] | < 10 nM |
| CC(=O)N1CCN(c2cc(-c3cnc4ccc(C(F)F)nn34)ncn2)C(C)C1CNS(C)(=O)=O (centres unmarked) [II-515, N-((1-Acetyl-4-(6-(6-(difluoromethyl)imidazo[1,2-b]pyridazin-3-yl)pyrimidin-4-yl)-3-methylpiperazin-2-yl)methyl)methanesulfonamide] | < 10 nM |
| CC1C(CCO)N(C)CCN1c1cc(-c2cnc3ccc(C(F)F)nn23)ncn1 (centres unmarked) [II-536, 2-(4-(6-(6-(Difluoromethyl)imidazo[1,2-b]pyridazin-3-yl)pyrimidin-4-yl)-1,3-dimethylpiperazin-2-yl)ethan-1-ol] | 10 to 1000 nM |
| CC(=O)N1CCC(c2cc(-c3cnc4ccc(C(F)F)nn34)ncn2)CC1 [II-539] | 10 to 1000 nM |
| COCCOC1CC(CNS(C)(=O)=O)CN(c2cc(-c3cnc4ccc(C(F)F)nn34)ncn2)C1 (centres unmarked) [II-549, N-((1-(6-(6-(Difluoromethyl)imidazo[1,2-b]pyridazin-3-yl)pyrimidin-4-yl)-5-(2-methoxyethoxy)piperidin-3-yl)methyl)methanesulfonamide] | 10 to 1000 nM |
| COCCOC1CC(CNS(C)(=O)=O)CN(c2cc(-c3cnc4ccc(C(F)F)nn34)ncn2)C1 (centres unmarked) [II-550, N-((1-(6-(6-(Difluoromethyl)imidazo[1,2-b]pyridazin-3-yl)pyrimidin-4-yl)-5-(2-methoxyethoxy)piperidin-3-yl)methyl)methanesulfonamide] | < 10 nM |
| CC1CCC(NS(C)(=O)=O)CN1c1cc(-c2cnc3ccc(C(F)F)nn23)ncn1 (centres unmarked) [II-551, N-(1-(6-(6-(Difluoromethyl)imidazo[1,2-b]pyridazin-3-yl)pyrimidin-4-yl)-6-methylpiperidin-3-yl)methanesulfonamide] | 10 to 1000 nM |
| CC1CCC(NS(C)(=O)=O)CN1c1cc(-c2cnc3ccc(C(F)F)nn23)ncn1 (centres unmarked) [II-552, N-(1-(6-(6-(Difluoromethyl)imidazo[1,2-b]pyridazin-3-yl)pyrimidin-4-yl)-6-methylpiperidin-3-yl)methanesulfonamide] | 10 to 1000 nM |
| CC1C(CO)N(C(C)(C)C)CCN1c1cc(-c2cnc3ccc(C(F)F)nn23)ncn1 (centres unmarked) [II-556, (1-(tert-Butyl)-4-(6-(6-(difluoromethyl)imidazo[1,2-b]pyridazin-3-yl)pyrimidin-4-yl)-3-methylpiperazin-2-yl)methanol] | 10 to 1000 nM |
| CC1C(CNS(C)(=O)=O)N(C(C)(C)C)CCN1c1cc(-c2cnc3ccc(C(F)F)nn23)ncn1 (centres unmarked) [II-559, N-((1-(tert-Butyl)-4-(6-(6-(difluoromethyl)imidazo[1,2-b]pyridazin-3-yl)pyrimidin-4-yl)-3-methylpiperazin-2-yl)methyl)methanesulfonamide] | 10 to 1000 nM |
| CS(=O)(=O)NCC1CN(c2cc(-c3cnc4ccc(C(F)F)nn34)ncn2)C[C@@H]2CCCN12 (stereo partly drawn) [II-560, N-(((8aS)-2-(6-(6-(Difluoromethyl)imidazo[1,2-b]pyridazin-3-yl)pyrimidin-4-yl)octahydropyrrolo[1,2-a]pyrazin-4-yl)methyl)methanesulfonamide] | < 10 nM |
| [2H]C([2H])([2H])N1CCN(c2cc(-c3cnc4ccc(C(F)F)nn34)ncn2)C(C)C1CNS(C)(=O)=O (centres unmarked) [II-561, N-((4-(6-(6-(Difluoromethyl)imidazo[1,2-b]pyridazin-3-yl)pyrimidin-4-yl)-3-methyl-1-(methyl-d3)piperazin-2-yl)methyl)methanesulfonamide] | 10 to 1000 nM |
| [2H]C([2H])([2H])N1CCN(c2cc(-c3cnc4ccc(C(F)F)nn34)ncn2)C(C)C1CNS(C)(=O)=O (centres unmarked) [II-562, N-((4-(6-(6-(Difluoromethyl)imidazo[1,2-b]pyridazin-3-yl)pyrimidin-4-yl)-3-methyl-1-(methyl-d3)piperazin-2-yl)methyl)methanesulfonamide] | < 10 nM |
| CC1(C)CN(c2cc(-c3cnc4ccc(C(F)F)nn34)ncn2)CC(CNS(C)(=O)=O)N1 (centres unmarked) [II-567, N-((4-(6-(6-(Difluoromethyl)imidazo[1,2-b]pyridazin-3-yl)pyrimidin-4-yl)-6,6-dimethylpiperazin-2-yl)methyl)methanesulfonamide] | 10 to 1000 nM |

Results, then the compound that gave them:

| Ki | SMILES |
| --- | --- |
| 10 to 1000 nM | CNS(=O)(=O)CC1CCCN(c2cc(-c3cnc4ccc(C(F)F)nn34)ncn2)C1 (centres unmarked) [II-236, 1-(1-(6-(6-(Difluoromethyl)imidazo[1,2-b]pyridazin-3-yl)pyrimidin-4-yl)piperidin-3-yl)-N-methylmethanesulfonamide] |
| 10 to 1000 nM | CCC1COC(CNS(C)(=O)=O)CN1c1cc(-c2cnc3ccc(C(F)F)nn23)ncn1 (centres unmarked) [II-269, N-((4-(6-(6-(Difluoromethyl)imidazo[1,2-b]pyridazin-3-yl)pyrimidin-4-yl)-5-ethylmorpholin-2-yl)methyl)methanesulfonamide] |
| 10 to 1000 nM | CN1CCN(c2cc(-c3cnc4ccc(C(F)F)nn34)ncn2)CC1CS(N)(=O)=O (centres unmarked) [II-464, (4-(6-(6-(Difluoromethyl)imidazo[1,2-b]pyridazin-3-yl)pyrimidin-4-yl)-1-methylpiperazin-2-yl)methanesulfonamide] |
| 10 to 1000 nM | N#CCC1CCCN(c2cc(-c3cnc4ccc(C(F)(F)F)nn34)ncn2)C1 (centres unmarked) [II-501, 2-(1-(6-(6-(Trifluoromethyl)imidazo[1,2-b]pyridazin-3-yl)pyrimidin-4-yl)piperidin-3-yl)acetonitrile] |
| 10 to 1000 nM | O=C(O)[C@@H]1CCCN(c2cc(-c3cnc4ccc(C(F)F)nn34)ncn2)C1 [II-508, (R)-1-(6-(6-(Difluoromethyl)imidazo[1,2-b]pyridazin-3-yl)pyrimidin-4-yl)piperidine-3-carboxylic acid] |
| 10 to 1000 nM | N#CCC1CN(c2cc(-c3cnc4ccc(C(F)F)nn34)ncn2)CCO1 (centres unmarked) [II-512, 2-(4-(6-(6-(Difluoromethyl)imidazo[1,2-b]pyridazin-3-yl)pyrimidin-4-yl)morpholin-2-yl)acetonitrile] |
| 10 to 1000 nM | N#CCC1CN(c2cc(-c3cnc4ccc(C(F)(F)F)nn34)ncn2)CCO1 (centres unmarked) [II-513, 2-(4-(6-(6-(Trifluoromethyl)imidazo[1,2-b]pyridazin-3-yl)pyrimidin-4-yl)morpholin-2-yl)acetonitrile] |
| 10 to 1000 nM | CN1CCN(c2cc(-c3cnc4ccc(C(F)F)nn34)ncn2)CC1CCO (centres unmarked) [II-514, 2-(4-(6-(6-(Difluoromethyl)imidazo[1,2-b]pyridazin-3-yl)pyrimidin-4-yl)-1-methylpiperazin-2-yl)ethan-1-ol] |
| 10 to 1000 nM | OC[C@@H]1CCCN(c2cc(-c3cnc4ccc(C(F)(F)F)nn34)ncn2)C1 [II-517, (R)-(1-(6-(6-(Trifluoromethyl)imidazo[1,2-b]pyridazin-3-yl)pyrimidin-4-yl)piperidin-3-yl)methanol] |
| < 10 nM | [2H]C([2H])(NS(C)(=O)=O)C1CCCN(c2cc(-c3cnc4ccc(C(F)F)nn34)ncn2)C1 (centres unmarked) [II-524, N-((1-(6-(6-(Difluoromethyl)imidazo[1,2-b]pyridazin-3-yl)pyrimidin-4-yl)piperidin-3-yl)methyl-d2)methanesulfonamide] |
| 10 to 1000 nM | N#CC1CN(c2cc(-c3cnc4ccc(C(F)F)nn34)ncn2)CCO1 (centres unmarked) [II-531, 4-(6-(6-(Difluoromethyl)imidazo[1,2-b]pyridazin-3-yl)pyrimidin-4-yl)morpholine-2-carbonitrile] |
| 10 to 1000 nM | N#CC1CCCN(c2cc(-c3cnc4ccc(C(F)F)nn34)ncn2)C1 (centres unmarked) [II-532, 1-(6-(6-(Difluoromethyl)imidazo[1,2-b]pyridazin-3-yl)pyrimidin-4-yl)piperidine-3-carbonitrile] |
| 10 to 1000 nM | N#CC1CN(c2cc(-c3cnc4ccc(C(F)(F)F)nn34)ncn2)CCO1 (centres unmarked) [II-533, 4-(6-(6-(Trifluoromethyl)imidazo[1,2-b]pyridazin-3-yl)pyrimidin-4-yl)morpholine-2-carbonitrile] |
| 10 to 1000 nM | N#CC1CCCN(c2cc(-c3cnc4ccc(C(F)(F)F)nn34)ncn2)C1 (centres unmarked) [II-534, 1-(6-(6-(Trifluoromethyl)imidazo[1,2-b]pyridazin-3-yl)pyrimidin-4-yl)piperidine-3-carbonitrile] |
| 10 to 1000 nM | CC1C(CO)CCCN1c1cc(-c2cnc3ccc(C(F)F)nn23)ncn1 (centres unmarked) [II-554, (1-(6-(6-(Difluoromethyl)imidazo[1,2-b]pyridazin-3-yl)pyrimidin-4-yl)-2-methylpiperidin-3-yl)methanol] |
| 10 to 1000 nM | CC1C(CO)CCCN1c1cc(-c2cnc3ccc(C(F)F)nn23)ncn1 (centres unmarked) [II-555, (1-(6-(6-(Difluoromethyl)imidazo[1,2-b]pyridazin-3-yl)pyrimidin-4-yl)-2-methylpiperidin-3-yl)methanol] |
| 10 to 1000 nM | O=S1(=O)CCCC1C1CCCN(c2cc(-c3cnc4ccc(C(F)F)nn34)ncn2)C1 (centres unmarked) [II-563, 2-(1-(6-(6-(Difluoromethyl)imidazo[1,2-b]pyridazin-3-yl)pyrimidin-4-yl)piperidin-3-yl)tetrahydrothiophene 1,1-dioxide] |
| < 10 nM | CS(=O)(=O)NCC1CN(c2cc(-c3cnc4ccc(C(F)F)nn34)ncn2)CCC12CC2 (centres unmarked) [II-566, N-((6-(6-(6-(Difluoromethyl)imidazo[1,2-b]pyridazin-3-yl)pyrimidin-4-yl)-6-azaspiro[2.5]octan-4-yl)methyl)methanesulfonamide] |
